These results are taken from PMC11530130, “Peripherally restricted PICK1 inhibitor mPD5 ameliorates pain behaviors in murine inflammatory and neuropathic pain models” (JCI Insight, 2024).

The subject of the assay is mice, spared nerve injury (SNI) model. The experiment in a line: SNI model, von Frey, single s.c. dose, female mice. The format is in vivo, mouse. Conditions: s.c. 2, 10, 50 μmol/kg (all tested doses), 1 hour after injection. The method, then:
solution (0.05 mg/kg) injected s.c. 30 min before surgery (10 μL/g). For surgery, mice were anaesthetised with ketamine (100 mg/kg, i.p.) and xylazine (10 mg/kg, i.p.) (volume 10 µL/g) with 100 μL of 1% xylocaine solution infiltrated at the site of the incision. The distal trifurcation of the sciatic nerve was identified, and the tibial and common peroneal branches were ligated with polypropylene nonabsorbable 6-0 sutures (Ethicon) and 1 mm was cut out, leaving the sural branch intact. The wound was closed with sutures, and the animals were allowed to recover and returned to their cages. […]
Wounds were closed with surgical glue or medical clips and animals were monitored daily for signs of stress or discomfort, but in all cases recovered uneventfully. […]
Unless otherwise specified, von Frey occurred as described in the following. […] Mechanical paw withdrawal threshold (PWT) was determined by von Frey measurements of both hind paws. […]
Mice were placed in PVC plastic boxes (11.5 cm x 14 cm) on a wire mesh and allowed minimum 20 min habituation prior of experiment initiation. Each von Frey hair was applied five times with adequate resting periods between each application and number of withdrawals recorded. The withdrawal threshold was determined as the von Frey filament eliciting at least three positive trials out of the five applications in two consecutive filaments. […]

In the case of `CCCCCCCCCCCCCC(=O)N(CCOCCOCCC(=O)N[C@@H](Cc1c[nH]cn1)C(=O)N[C@@H](Cc1c[nH]c2ccccc12)C(=O)N[C@@H](CC(C)C)C(=O)N[C@@H](CCCCN)C(=O)N[C@H](C(=O)O)C(C)C)CCOCCOCCC(=O)N[C@@H](Cc1c[nH]cn1)C(=O)N[C@@H](Cc1c[nH]c2ccccc12)C(=O)N[C@@H](CC(C)C)C(=O)N[C@@H](CCCCN)C(=O)N[C@H](C(=O)O)C(C)C` [mPD5, myristoyl-NPEG4-(HWLKV)2], the “effect on mechanical hypersensitivity (PWT)” value is on record as “significantly reduced mechanical hypersensitivity”.
